Results on 12 compounds are retold here after patent US9446044B2, “DYRK1 inhibitors and uses thereof” (DIAXONHIT, priority 2011, dated 2016).

Test [1] addresses DYRK1B (Homo sapiens (Human), UniProt Q9Y463). The test can be described thus: DYRK1B kinase assay (HotSpot, Reaction Biology). In kind it is biochemical.
Test [2] deals with DYRK1A (Homo sapiens (Human), UniProt Q13627). Description: DYRK1A kinase assay (HotSpot, Reaction Biology). It counts as biochemical. Conditions: purified recombinant kinase, 10 μM ATP, room temperature 120 min.
[3] abbreviates: purified recombinant kinase, 10 μM ATP, room temperature 120 min.

Like-named read-outs stand apart in the source and are kept apart here.

Chain of DYRK1B (Q9Y463 whole entry): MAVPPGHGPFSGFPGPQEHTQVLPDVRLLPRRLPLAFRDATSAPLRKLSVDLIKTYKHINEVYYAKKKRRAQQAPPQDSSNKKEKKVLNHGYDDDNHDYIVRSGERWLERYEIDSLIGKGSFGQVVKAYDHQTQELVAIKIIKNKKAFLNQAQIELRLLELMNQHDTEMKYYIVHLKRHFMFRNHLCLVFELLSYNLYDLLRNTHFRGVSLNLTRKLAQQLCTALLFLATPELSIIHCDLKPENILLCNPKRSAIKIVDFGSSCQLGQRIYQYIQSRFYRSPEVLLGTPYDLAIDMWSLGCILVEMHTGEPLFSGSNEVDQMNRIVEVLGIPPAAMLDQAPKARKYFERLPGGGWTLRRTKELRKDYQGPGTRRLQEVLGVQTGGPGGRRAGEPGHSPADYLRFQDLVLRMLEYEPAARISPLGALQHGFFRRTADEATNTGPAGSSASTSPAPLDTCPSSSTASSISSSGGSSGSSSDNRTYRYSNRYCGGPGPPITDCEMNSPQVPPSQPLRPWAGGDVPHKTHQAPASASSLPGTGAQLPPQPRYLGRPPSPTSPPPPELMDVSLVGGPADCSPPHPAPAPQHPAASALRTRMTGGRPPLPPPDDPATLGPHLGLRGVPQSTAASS

By IC50 is commonly meant the concentration that gives 50% inhibition. `COC(=N)c1nc2ccc3ncnc(Nc4ccc(F)cc4F)c3c2s1` [Compound 78, Methyl 9-(2,4-difluorophenylamino)thiazolo[5,4-f]quinazoline-2-carbimidate]: the concentration for half-maximal inhibition (IC50) in test [1] (setting [3]) is 1.07 nM; in test [2], 0.94 nM.

For the compound `COC(=N)c1nc2ccc3ncnc(Nc4ccc(O)c(F)c4)c3c2s1` [Compound 79, Methyl 9-(3-fluoro-4-hydroxyphenylamino)thiazolo[5,4-f]quinazoline-2-carbimidate], the results for the IC50 in test [1] (setting [3]) and in test [2] were 11 nM and 8.63 nM, respectively.

As for `COC(=N)c1nc2ccc3ncnc(Nc4ccc(C(F)(F)F)cc4)c3c2s1` [Compound 80, Methyl 9-(4-(trifluoromethyl)phenylamino)thiazolo[5,4-f]quinazoline-2-carbimidate], the concentration for half-maximal inhibition (IC50) is 25.2 nM in test [1] (setting [3]) and 18.3 nM in test [2].

Regarding `CCOC(=N)c1nc2ccc3ncnc(Nc4ccc(Br)cc4F)c3c2s1` [Compound 81, Ethyl 9-(4-bromo-2-fluorophenylamino)thiazolo[5,4-f]quinazoline-2-carbimidate], the concentration for half-maximal inhibition (IC50) in test [1] (setting [3]) was determined as 34.4 nM; in test [2], 33.2 nM.

As to `CCOC(=N)c1nc2ccc3ncnc(Nc4ccc5c(c4)OCO5)c3c2s1` [Compound 82, Ethyl 9-(benzo[d][1,3]dioxol-5-ylamino)thiazolo[5,4-j]quinazoline-2-carbimidate], the values for the IC50 in test [1] (setting [3]) and in test [2] were 7.72 nM and 6.02 nM, respectively.

For `N=C(OCc1ccccc1)c1nc2ccc3ncnc(Nc4ccc5c(c4)OCO5)c3c2s1` [Compound 83, benzyl 9-(benzo[d][1,3]dioxol-5-ylamino)thiazolo[5,4-f]quinazoline-2-carbimidate], the concentration for half-maximal inhibition (IC50) in test [1] (setting [3]) worked out at 37.3 nM; in test [2], 33.9 nM.

Take `CC(C)OC(=N)c1nc2ccc3ncnc(Nc4ccc5c(c4)OCO5)c3c2s1` [Compound 85, isopropyl 9-(benzo[d][1,3]dioxol-5-ylamino)thiazolo[5,4-f]quinazoline-2-carbimidate]: the IC50 in test [1] was 218 nM; in test [2], 125 nM.

With `NC(=O)c1nc2ccc3ncnc(Nc4ccc(F)cc4Br)c3c2s1` [Compound 86, 9-((2-bromo-4-fluorophenyl)amino)thiazolo[5,4-f]quinazoline-2-carboxamide], the values for the IC50 in test [1] (setting [3]) and in test [2] were 31.5 nM and 26.2 nM, respectively.

As to `NC(=O)c1nc2ccc3ncnc(Nc4ccc(Cl)cc4Cl)c3c2s1` [Compound 87, 9-((2,4-dichlorophenyl)amino)thiazolo[5,4-f]quinazoline-2-carboxamide], the 50% inhibitory concentration (IC50) amounted to 43.4 nM in test [1] (setting [3]) and 34.9 nM in test [2].

Consider `CCCCOC(=N)c1nc2ccc3ncnc(Nc4ccc(Cl)cc4Cl)c3c2s1` [Compound 88, butyl 9-((2,4-dichlorophenyl)amino)thiazolo[5,4-f]quinazoline-2-carbimidate], for which the IC50 in test [1] (setting [3]) amounted to 69.4 nM; in test [2] it was 47.5 nM.

`COC(=O)c1nc2ccc3ncnc(Nc4ccc(Cl)cc4Cl)c3c2s1` [Compound 89, methyl 9-((2,4-dichlorophenyl)amino)thiazolo[5,4-f]quinazoline-2-carboxylate]: the IC50 in test [1] (setting [3]) was found to be 7.7 nM; in test [2], 5.1 nM.

Consider `CC(C)(C)CNc1ncnc2ccc(-c3ccc4c(c3)OCO4)cc12` [NCGC-00189310, reference compound], for which the 50% inhibitory concentration (IC50) is 20.6 nM in test [1] (setting [3]) and 2.2 nM in test [2].
